From PubChem BioAssay AID268 (DTP/NCI, 2004)
Where “and” joins values, the source holds several entries; their conditions need not be identical. Equal values may be shown once.

Test system: CD2F1 mice, P1798 lymphosarcoma sc, tumor weight T/C
Assay: NCI In Vivo Anticancer Drug Screen. Data for tumor model P1798 Lymphosarcoma (subcutaneous) in CD2F1 (CDF1) mice
Settings: higher = larger tumour
Protocol: The antitumor activity of compounds was measured in mice bearing transplantable tumors. Survival or tumor size were measured and the results are expressed as the measurement made in the treated group (T) divided by the measurement made in the vehicle treated control group (C). The tumor model used in this assay is P1798 Lymphosarcoma (subcutaneous) in CD2F1 (CDF1) mice

[1] = endpoint: mean tumor weight, dose: 5.0 mg/kg/injection, schedule: Q01DX010 (ip), vehicle: saline
[2] = endpoint: mean tumor weight, dose: 12.5 mg/kg/injection, schedule: Q01DX005 (sc), vehicle: steriod suspending solution
[3] = endpoint: mean tumor weight, dose: 12.5 mg/kg/injection, schedule: Q02DX010 (sc), vehicle: steriod suspending solution
[4] = endpoint: mean tumor weight, dose: 25.0 mg/kg/injection, schedule: Q01DX005 (sc), vehicle: steriod suspending solution
[5] = endpoint: mean tumor weight, dose: 25.0 mg/kg/injection, schedule: Q02DX010 (sc), vehicle: steriod suspending solution
[6] = endpoint: mean tumor weight, dose: 62.5 mg/kg/injection, schedule: Q01DX010 (ip), vehicle: saline
[7] = endpoint: mean tumor weight, dose: 100.0 mg/kg/injection, schedule: Q01DX010 (ip), vehicle: saline
[8] = endpoint: mean tumor weight, dose: 125.0 mg/kg/injection, schedule: Q01DX010 (ip), vehicle: saline
[9] = endpoint: mean tumor weight, dose: 200.0 mg/kg/injection, schedule: Q01DX010 (ip), vehicle: saline
[10] = endpoint: mean tumor weight, dose: 250.0 mg/kg/injection, schedule: Q01DX010 (ip), vehicle: saline
[11] = endpoint: mean tumor weight, dose: 500.0 mg/kg/injection, schedule: Q01DX010 (ip), vehicle: saline
[12] = endpoint: mean tumor weight, dose: 25.0 mg/kg/injection, schedule: Q01DX010 (sc), vehicle: steriod suspending solution
[13] = endpoint: mean tumor weight, dose: 10.0 mg/kg/injection, schedule: Q01DX010 (ip), vehicle: saline
[14] = endpoint: mean tumor weight, dose: 20.0 mg/kg/injection, schedule: Q01DX010 (ip), vehicle: saline
[15] = endpoint: mean tumor weight, dose: 12.5 mg/kg/injection, schedule: Q01DX010 (sc), vehicle: steriod suspending solution
[16] = endpoint: mean tumor weight, dose: 100.0 mg/kg/injection, schedule: Q01DX010 (sc), vehicle: steriod suspending solution
[17] = endpoint: mean tumor weight, dose: 50.0 mg/kg/injection, schedule: Q01DX010 (ip), vehicle: saline
[18] = endpoint: mean tumor weight, dose: 12.5 mg/kg/injection, schedule: Q01DX010 (ip), vehicle: saline
[19] = endpoint: mean tumor weight, dose: 25.0 mg/kg/injection, schedule: Q01DX010 (ip), vehicle: saline

CN[C@H]1CCc2cc(OC)c(OC)c(OC)c2-c2ccc(OC)c(=O)cc21
T/C (endpoint: mean tumor weight, dose: 0.63 mg/kg/injection, schedule: Q01DX010 (ip), vehicle: other): 108 % of control
T/C (endpoint: mean tumor weight, dose: 0.63 mg/kg/injection, schedule: Q01DX010 (ip), vehicle: saline): 59 % of control
T/C (endpoint: mean tumor weight, dose: 1.25 mg/kg/injection, schedule: Q01DX010 (ip), vehicle: other): 116 % of control
T/C (endpoint: mean tumor weight, dose: 1.25 mg/kg/injection, schedule: Q01DX010 (ip), vehicle: saline): 82 % of control
T/C (endpoint: mean tumor weight, dose: 2.5 mg/kg/injection, schedule: Q01DX010 (ip), vehicle: other): 112 % of control
T/C (endpoint: mean tumor weight, dose: 2.5 mg/kg/injection, schedule: Q01DX010 (ip), vehicle: saline): 57 % of control
T/C (endpoint: mean tumor weight, dose: 5.0 mg/kg/injection, schedule: Q01DX010 (ip), vehicle: other): 96 % of control
T/C [1]: 32 % of control

C[C@@H]1C[C@H]2[C@@H]3CCC4=CC(=O)C=C[C@]4(C)[C@@]3(F)[C@@H](O)C[C@]2(C)[C@@]1(O)C(=O)CO
T/C (endpoint: mean tumor weight (est.), dose: 3.13 mg/kg/injection, schedule: Q01DX016 (sc), vehicle: saline): 55 % of control
T/C (endpoint: mean tumor weight (est.), dose: 6.25 mg/kg/injection, schedule: Q01DX016 (sc), vehicle: saline): 7 % of control
T/C (endpoint: mean tumor weight, dose: 3.13 mg/kg/injection, schedule: Q01DX005 (sc), vehicle: steriod suspending solution): 33 % of control
T/C (endpoint: mean tumor weight, dose: 3.13 mg/kg/injection, schedule: Q01DX010 (sc), vehicle: steriod suspending solution): 5 % of control
T/C (endpoint: mean tumor weight, dose: 6.25 mg/kg/injection, schedule: Q01DX005 (sc), vehicle: steriod suspending solution): 8 % of control
T/C (endpoint: mean tumor weight, dose: 6.25 mg/kg/injection, schedule: Q02DX010 (sc), vehicle: steriod suspending solution): 116 % of control
T/C [2]: 4 % of control
T/C [3]: 98 % of control
T/C [4]: 1 % of control
T/C [5]: 56 % of control

Nc1nc2n[nH]nc2c(=O)[nH]1
T/C (endpoint: mean tumor weight, dose: 25.0 mg/kg/injection, schedule: Q01DX010 (ip), vehicle: alkali diluted with saline): 119 % of control
T/C (endpoint: mean tumor weight, dose: 50.0 mg/kg/injection, schedule: Q01DX010 (ip), vehicle: alkali diluted with saline): 64 % of control
T/C (endpoint: mean tumor weight, dose: 100.0 mg/kg/injection, schedule: Q01DX010 (ip), vehicle: alkali diluted with saline): 42 % of control and 49 % of control
T/C (endpoint: mean tumor weight, dose: 200.0 mg/kg/injection, schedule: Q01DX010 (ip), vehicle: alkali diluted with saline): 15 % of control and 29 % of control
T/C (endpoint: mean tumor weight, dose: 400.0 mg/kg/injection, schedule: Q01DX010 (ip), vehicle: alkali diluted with saline): 2 % of control

N#Cc1ccc(S(N)(=O)=O)cc1
T/C (endpoint: mean tumor weight, dose: 22.0 mg/kg/injection, schedule: Q01DX010 (ip), vehicle: saline): 70 % of control
T/C (endpoint: mean tumor weight, dose: 33.0 mg/kg/injection, schedule: Q01DX010 (ip), vehicle: saline): 54 % of control
T/C (endpoint: mean tumor weight, dose: 49.0 mg/kg/injection, schedule: Q01DX010 (ip), vehicle: saline): 67 % of control
T/C (endpoint: mean tumor weight, dose: 73.0 mg/kg/injection, schedule: Q01DX010 (ip), vehicle: saline): 35 % of control

Cc1cn(C2OC(CO)C(O)C2O)c(=O)[nH]c1=O (stereo not drawn)
T/C [6]: 97 % of control
T/C [7]: 67 % of control
T/C [8]: 96 % of control
T/C [9]: 80 % of control
T/C [10]: 72 % of control
T/C (endpoint: mean tumor weight, dose: 400.0 mg/kg/injection, schedule: Q01DX010 (ip), vehicle: saline): 85 % of control
T/C [11]: 69 % of control
T/C (endpoint: mean tumor weight, dose: 800.0 mg/kg/injection, schedule: Q01DX010 (ip), vehicle: saline): 75 % of control

C#C[C@]1(O)CC[C@H]2[C@@H]3CCc4cc(O)ccc4[C@H]3CC[C@@]21C
T/C [12]: 71 % of control and 85 % of control

S=P(N1CCOCC1)(N1CC1)N1CC1
T/C [13]: 50 % of control and 75 % of control
T/C [14]: 24 % of control

[N-]=[N+]=CC(=O)CCC(N)C(=O)O (stereo not drawn)
T/C (endpoint: mean tumor weight, dose: 0.01 mg/kg/injection, schedule: Q01DX010 (ip), vehicle: saline): 102 % of control
T/C (endpoint: mean tumor weight, dose: 0.03 mg/kg/injection, schedule: Q01DX010 (ip), vehicle: saline): 89 % of control
T/C (endpoint: mean tumor weight, dose: 0.05 mg/kg/injection, schedule: Q01DX010 (ip), vehicle: saline): 100 % of control
T/C (endpoint: mean tumor weight, dose: 0.1 mg/kg/injection, schedule: Q01DX010 (ip), vehicle: saline): 108 % of control

C[C@]12CCC(=O)C=C1CC[C@@H]1[C@@H]2CC[C@@]2(C)[C@H]1CC[C@]2(C)O
T/C [15]: 91 % of control
T/C [12]: 61 % of control
T/C (endpoint: mean tumor weight, dose: 50.0 mg/kg/injection, schedule: Q01DX010 (sc), vehicle: steriod suspending solution): 90 % of control
T/C [16]: 97 % of control

O=c1cn[nH]c(=O)[nH]1
T/C [6]: 111 % of control and 89 % of control
T/C [8]: 97 % of control
T/C [10]: 62 % of control and 80 % of control
T/C [11]: 80 % of control

Cc1cc2nc3c(=O)[nH]c(=O)nc-3n(CC(O)C(O)C(O)C(O)CO)c2cc1C (stereo not drawn)
T/C [17]: 86 % of control
T/C [7]: 88 % of control
T/C [9]: 58 % of control

COc1cc([C@@H]2c3cc4c(cc3[C@H](O)[C@H]3COC(=O)[C@H]23)OCO4)cc(OC)c1OC
T/C (endpoint: mean tumor weight, dose: 0.9 mg/kg/injection, schedule: Q01DX011 (ip), vehicle: carboxymethylcellulose (CMC)): 56 % of control
T/C (endpoint: mean tumor weight, dose: 1.7 mg/kg/injection, schedule: Q01DX011 (ip), vehicle: carboxymethylcellulose (CMC)): 111 % of control
T/C (endpoint: mean tumor weight, dose: 2.2 mg/kg/injection, schedule: Q01DX011 (ip), vehicle: carboxymethylcellulose (CMC)): 80 % of control

COc1cc(-c2ccc(Nc3ccccc3C(=O)O)c(OC)c2)ccc1Nc1ccccc1C(=O)O
T/C [18]: 61 % of control
T/C [19]: 53 % of control and 57 % of control
T/C [17]: 12 % of control and 30 % of control

C[C@]12CCC(=O)C=C1CC[C@@H]1[C@@H]2[C@@H](O)C[C@@]2(C)[C@H]1CC[C@]2(O)C(=O)CO
T/C [2]: 51 % of control
T/C [3]: 105 % of control
T/C [4]: 15 % of control
T/C [5]: 105 % of control
T/C (endpoint: mean tumor weight, dose: 50.0 mg/kg/injection, schedule: Q01DX005 (sc), vehicle: steriod suspending solution): 7 % of control
T/C (endpoint: mean tumor weight, dose: 50.0 mg/kg/injection, schedule: Q02DX010 (sc), vehicle: steriod suspending solution): 110 % of control
T/C (endpoint: mean tumor weight, dose: 100.0 mg/kg/injection, schedule: Q01DX005 (sc), vehicle: steriod suspending solution): 1 % of control

COc1cc(C[C@H]2c3cc(OC)c(OC)cc3CCN2C)c(Oc2cc3c(cc2OC)-c2c(OC)c(OC)cc4c2[C@H](C3)N(C)CC4)cc1OC
T/C (endpoint: mean tumor weight, dose: 50.0 mg/kg/injection, schedule: Q01DX011 (ip), vehicle: carboxymethylcellulose (CMC)): 13 % of control

CS(=O)(=O)OCCCl
T/C (endpoint: mean tumor weight, dose: 9.4 mg/kg/injection, schedule: Q01DX010 (ip), vehicle: saline): 155 % of control
T/C (endpoint: mean tumor weight, dose: 18.8 mg/kg/injection, schedule: Q01DX010 (ip), vehicle: saline): 171 % of control
T/C (endpoint: mean tumor weight, dose: 37.5 mg/kg/injection, schedule: Q01DX010 (ip), vehicle: saline): 186 % of control
T/C (endpoint: mean tumor weight, dose: 75.0 mg/kg/injection, schedule: Q01DX010 (ip), vehicle: saline): 86 % of control

C[C@]12C=CC(=O)C=C1CC[C@@H]1[C@@H]2CC[C@]2(C)OC(=O)CC[C@@H]12
T/C [15]: 107 % of control and 112 % of control
T/C [12]: 101 % of control and 77 % of control
T/C [16]: 111 % of control and 115 % of control

COc1ccc2[nH]c3c(C)c4ccncc4c(C)c3c2c1
T/C (endpoint: mean tumor weight, dose: 0.39 mg/kg/injection, schedule: Q01DX010 (ip), vehicle: saline): 104 % of control
T/C (endpoint: mean tumor weight, dose: 0.78 mg/kg/injection, schedule: Q01DX010 (ip), vehicle: saline): 111 % of control
T/C (endpoint: mean tumor weight, dose: 1.56 mg/kg/injection, schedule: Q01DX010 (ip), vehicle: saline): 73 % of control
T/C (endpoint: mean tumor weight, dose: 6.25 mg/kg/injection, schedule: Q01DX010 (ip), vehicle: saline): 61 % of control
T/C [18]: 45 % of control
T/C [19]: 40 % of control and 42 % of control

Cc1cc(N(CCCl)CCCl)ccc1N=Nc1ccccc1C(=O)O
T/C [1]: 72 % of control and 79 % of control
T/C [13]: 16 % of control and 23 % of control
T/C [14]: 10 % of control
